Source: patent US20230015532A1, “PHARMACEUTICAL COMPOSITION, FOR PREVENTING OR TREATING FIBROSIS, COMPRISING PHEOPHORBIDE COMPOUND AS ACTIVE INGREDIENT” (PAEAN BIOTECHNOLOGY INC., priority 2019, published 2023)

Tests used:
Assay type in all cases: cell-based, human
[1] = system: α-SMA, CTGF and NOX4 genes in CCD8-Lu cells; assay: Comparison of anti-fibrotic activity by quantitative real-time PCR (Experimental Example 4.1); conditions: 2.5 μM and 5 μM; 6 hours after 5 ng/ml TGF-β, 18 hours; qRT-PCR
Experimental: A cell-based analysis experiment was performed to analyze the anti-fibrotic activity of pheophorbide a obtained in Preparation Example 2 in comparison with nintedanib and pirfenidone, which were previously approved as a therapeutic agent for pulmonary fibrosis, using quantitative real-time polymerase chain reaction.
(§1) CCD8-Lu cells, which are human lung-derived fibroblasts, were cultured in the DMEM medium containing 10% FBS. About 2×10^5 cells were then inoculated into a 6 well plate, cultured for 24 hours, and subjected to the deficient condition in the DMEM medium from which FBS was removed for about 24 hours.
24 hours later, following the treatment with TGF-β at a concentration of 5 ng/ml, fibrosis of cells was induced for 6 hours. After 6 hours, the cells were treated with pheophorbide a obtained in Preparation Example 2 or the therapeutic agent for pulmonary fibrosis and further cultured for 18 hours. […]
The supernatant was separated, added with the same volume of isopropyl alcohol and centrifuged at 12,000×g for 10 minutes. […] After drying, about 50 μl of RNAase-free purified distilled water was added thereto, and the quantity and purity of the obtained RNA was measured using a spectrophotometer. […]
After the cDNA synthesis reaction was completed, the reverse transcriptase was inactivated by heating at 72° C. for 5 minutes, and then RNase H was added to remove the […] RNA and obtain the final cDNA. Whether the expression of the alpha-smooth muscle actin gene, which is a characteristic gene of myofibroblasts, the CCN2 (or CTGF) gene, which is a characteristic gene for fibrosis, fibronectin, which is a characteristics gene for fibrosis, and the NOX4 (NADPH oxidase 4) gene known as a major regulator of the amount of reactive oxygen species was changed was observed through quantitative real-time polymerase chain reaction. The GAPDH gene was quantified together to correct differences in expression.

[2] = system: collagen 1A in CCD8-Lu cells; assay: Anti-fibrotic activity by immunocytochemistry staining (Experimental Example 3.2); conditions: 6 hours after 5 ng/ml TGF-β
Experimental: A cell-based assay experiment was performed to analyze the anti-fibrotic activity of pheophorbide a obtained in Preparation Example 2, using immunocytochemistry staining method.
as §1, with “2×10^4” for “2×10^5”, “24” for “6”, “plate and” for “plate,”
After 24 hours, following the treatment with TGF-β at a concentration of 5 ng/ml, fibrosis of cells was induced for 6 hours. After 6 hours, the cells were treated with pheophorbide a obtained in Preparation Example 2 and further cultured for 18 hours (FIG. 2). Then, the negative control group was treated with nothing, the positive control group was treated with TGF-β alone at a concentration of 5 ng/ml, and the experimental groups were treated with TGF-β at a concentration of 5 ng/ml and 6 hours later, with pheophorbide a at each concentration of 0.15 μM, 0.3 μM, 0.6 μM, 1.2 μM, 2.5 μM and 5 μM.
Immunohistochemistry analysis for each sample was performed as follows. […] The nuclei were stained using DAPI (4,6-diamidino-2-phenylindole) and the difference in the intensity of fluorescence was analyzed using a fluorescence microscope.

[3] = system: phosphorylated Smad3 and phosphorylated ERK in CCD8-Lu cells; assay: Western blotting of phosphorylated proteins of TGF-β signaling (Experimental Example 5); conditions: 5 μM, 6 hours after 5 ng/ml TGF-β
Experimental: A cell-based assay experiment was performed using Western blotting assay to determine the effect of pheophorbide a on phosphorylation in the TGF-β signaling pathway. CCD8-Lu cells, which are human lung-derived fibroblasts, were cultured in the DMEM medium containing 10% FBS. About 2×10^5 cells were then inoculated into a 6 well plate, cultured for 24 hours, and subjected to the deficient condition in the DMEM medium from which FBS was removed for about 24 hours. 24 hours later, following the treatment with TGF-β at a concentration of 5 ng/ml, fibrosis of cells was induced for 6 hours. Then, the cells were treated with pheophorbide a obtained in Preparation Example 2 or the therapeutic agent for pulmonary fibrosis and further cultured for 18 hours. Then, the negative control group was treated with nothing, the positive control group was treated with TGF-β alone at a concentration of 5 ng/ml, and the experimental groups were treated with TGF-β at a concentration of 5 ng/ml and 6 hours later, with pheophorbide a at a concentration of 5 μM and nintedanib at a concentration of 1 μM, respectively. […] The separated supernatant was obtained and transferred to a new microtube and then the protein was quantified using a bicinchoninic acid assay (BCA assay) protein quantitative kit. […]

pheophorbide a
expression of the α-SMA, CTGF and NOX4 genes induced by TGF-β [1]: remarkably inhibited | increased expression of collagen 1A induced by TGF-β ([2]; 0.15-5 μM, fluorescence intensity): largely inhibited | inhibitory effect on the increased expression of collagen 1A induced by TGF-β ([2]; concentration of 2.5 μM or more): most excellent inhibitory effect | expression of phosphorylated Smad3 and phosphorylated ERK induced by TGF-β [3]: remarkably inhibited
